The supplement of paper PMC5908809

Legend:
[1] = system: normal NK cells expanded with K562-aAPC; assay: percent inhibition of viability; higher = more inhibition; conditions: 72 h, IL-2 2.5 ng/mL
Protocol: (§1)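 Drug sensitivity and resistance testing on K562-aAPC-expanded normal NK cells: 5 concentrations (10-fold steps over a 10,000-fold range), 72 h at 37 °C, viability by CellTiter-Glo normalised to DMSO and benzethonium chloride controls; DSS from the fitted curve.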

[2] = system: DERL-7 (IL-2 2.5 ng/mL); assay: as above; conditions: 72 h
[3] = system: IMC-1 (IL-2 20 ng/mL); assay: as above; conditions: 72 h
[4] = system: KAI3 (IL-2 2.5 ng/mL); assay: as above; conditions: 72 h
[5] = system: KHYG-1 (IL-2 2.5 ng/mL); assay: as above; conditions: 72 h
[6] = system: NK-92 (IL-2 2.5 ng/mL); assay: as above; conditions: 72 h
[7] = system: NK-YS (IL-2 2.5 ng/mL); assay: as above; conditions: 72 h
[8] = system: NKL (IL-2 2.5 ng/mL); assay: as above; conditions: 72 h
[9] = system: SNK-6 (IL-2 2.5 ng/mL); assay: as above; conditions: 72 h
[10] = system: YT (IL-2 2.5 ng/mL); assay: as above; conditions: 72 h
[11] = system: normal primary NK cells, pool 1 (3 donors) (IL-2 2.5 ng/mL); assay: as above; conditions: 72 h
[12] = system: normal primary NK cells, pool 1 (3 donors), resting (IL-2 0 ng/mL); assay: as above; conditions: 72 h
[13] = system: normal primary NK cells, pool 2 (3 donors) (IL-2 2.5 ng/mL); assay: as above; conditions: 72 h
[14] = system: normal primary NK cells, pool 3 (3 donors) (IL-2 2.5 ng/mL); assay: as above; conditions: 72 h
[15] = system: normal NK cells expanded with K562-aAPC; assay: drug sensitivity score (DSS) (DSS units); higher = more sensitive; extreme values may be limits of the assay; conditions: 72 h; IL-2 2.5 ng/mL
Protocol: as §1

[16] = system: DERL-7 (IL-2 2.5 ng/mL); assay: as above; conditions: 72 h
[17] = system: IMC-1 (IL-2 20 ng/mL); assay: as above; conditions: 72 h
[18] = system: KAI3 (IL-2 2.5 ng/mL); assay: as above; conditions: 72 h
[19] = system: KHYG-1 (IL-2 2.5 ng/mL); assay: as above; conditions: 72 h
[20] = system: NK-92 (IL-2 2.5 ng/mL); assay: as above; conditions: 72 h
[21] = system: NK-YS (IL-2 2.5 ng/mL); assay: as above; conditions: 72 h
[22] = system: NKL (IL-2 2.5 ng/mL); assay: as above; conditions: 72 h
[23] = system: SNK-6 (IL-2 2.5 ng/mL); assay: as above; conditions: 72 h
[24] = system: YT (IL-2 2.5 ng/mL); assay: as above; conditions: 72 h
[25] = system: normal primary NK cells, pool 1 (3 donors) (IL-2 2.5 ng/mL); assay: as above; conditions: 72 h
[26] = system: normal primary NK cells, pool 1 (3 donors), resting (IL-2 0 ng/mL); assay: as above; conditions: 72 h
[27] = system: normal primary NK cells, pool 2 (3 donors) (IL-2 2.5 ng/mL); assay: as above; conditions: 72 h
[28] = system: normal primary NK cells, pool 3 (3 donors) (IL-2 2.5 ng/mL); assay: as above; conditions: 72 h

COc1cc(Nc2ncc3c(n2)-c2ccc(Cl)cc2C(c2c(F)cccc2OC)=NC3)ccc1C(=O)O [Alisertib] (max concentration tested 10000 nM)
percent inhibition of viability [%]
Conditions	1 nM	10 nM	100 nM	1000 nM	10000 nM
[1]	-8.29	-10.5	39	46	63.8
[2]	3.14	3.32	73.9	65.1	72.8
[3]	-9.95	3	42.5	76.7	88
[4]	-7.42	6.5	38.4	56.8	73
[5]	-6.82	13.3	62.3	82.9	90.3
[6]	-1.61	21.5	53.4	63.6	77.1
[7]	-8.82	18.6	67.4	75.4	71.3
[8]	-15.7	-12.7	54.1	31.1	62.9
[9]	-9.82	4.71	73.7	81.3	84.4
[10]	-1.37	10.7	43.4	32.9	60.8
[11]	-6.59	4.27	6.91	0.99	12.4
[12]	4.36	18.6	7.69	21.1	47.6
[13]	-1.45	-4.51	12.5	7.67	29.6
[14]	4.24	-4.25	17.1	4.71	23

Conditions	drug sensitivity score
[15]	16.4
[16]	23.4
[17]	19.8
[18]	16
[19]	24.4
[20]	21.1
[21]	24.5
[22]	17.9
[23]	24.9
[24]	13.6
[25]	0
[26]	5.81
[27]	1.95
[28]	1.41

CN(C)c1nc(N(C)C)nc(N(C)C)n1 [Altretamine] (max concentration tested 10000 nM)
percent inhibition of viability [%]
Conditions	1 nM	10 nM	100 nM	1000 nM	10000 nM
[1]	-2.99	-3.76	0.47	-2.02	-2.72
[2]	-4.53	-2.77	0.97	2.22	0.81
[3]	-2.71	0.47	-4.67	-2.63	-6.93
[4]	3.52	10.7	11.4	24.1	24.6
[5]	-7.38	-7.34	-6.09	-2.99	-6.61
[6]	-14.2	-12.6	-6.86	-1.41	-0.2
[7]	1.59	-1.58	1.2	11.7	9.31
[8]	-10	-9.91	-10.4	1.45	1.87
[9]	-4.42	-8.89	-0.39	6.56	-2.57
[10]	-3.72	-5.67	-6.12	-0.77	-8.31
[11]	-5.08	-6.48	-0.04	-1.59	3.54
[12]	-0.78	-0.59	9.13	16.1	26
[13]	-3.77	-3.94	-0.13	0	1.61
[14]	-9.05	-7.82	-1.85	-3.99	3.69

Conditions	drug sensitivity score
[15]	0
[16]	0
[17]	0
[18]	4.61
[19]	0
[20]	0
[21]	0.51
[22]	0
[23]	0
[24]	0
[25]	0
[26]	2.84
[27]	0
[28]	0

CN1CC[C@H](c2c(O)cc(O)c3c(=O)cc(-c4ccccc4Cl)oc23)[C@H](O)C1 [Alvocidib] (max concentration tested 10000 nM)
percent inhibition of viability [%]
Conditions	1 nM	10 nM	100 nM	1000 nM	10000 nM
[1]	-1.75	-1.8	2.89	100	101
[2]	-0.06	-8.43	20	99.6	101
[3]	-6.84	-2.57	-23.3	98.5	100
[4]	-3.44	8.97	69.4	99.3	104
[5]	3.43	-0.43	31.6	103	106
[6]	1.2	-10.9	40.2	99.5	104
[7]	-0.27	3.87	33.1	98.8	103
[8]	-9.8	1.18	36	101	109
[9]	16.1	27.2	40	54.8	50.7
[10]	1.4	6.09	33.3	101	104
[11]	-0.02	-24.2	17.8	96.8	97.3
[12]	6.48	-25.6	-4.81	88.6	91.6
[13]	-15.2	-10.6	25.6	93.8	95.7
[14]	-16.4	-9.75	22.2	97.3	98.7

Conditions	drug sensitivity score
[15]	18.4
[16]	21.2
[17]	16.6
[18]	26.8
[19]	22.6
[20]	23.4
[21]	22.1
[22]	23
[23]	18.3
[24]	22.6
[25]	20.4
[26]	15.8
[27]	21.1
[28]	21.3

CCS(=O)(=O)N1CC(CC#N)(n2cc(-c3ncnc4[nH]ccc34)cn2)C1 [Baricitinib] (max concentration tested 2500 nM)
percent inhibition of viability [%]
Conditions	0.25 nM	2.5 nM	25 nM	250 nM	2500 nM
[1]	0.8	2.05	31	89.9	99.7
[2]	2.21	8.22	35.1	77.5	101
[3]	-4.87	-4.53	-11.2	16.2	87.2
[4]	4.12	13.4	55.5	95.9	99.2
[5]	-8.72	1.48	46.9	106	109
[6]	-7.1	-0.82	23.4	68	97.8
[7]	-8.38	-2.38	20.7	60.4	74.6
[8]	6.63	24.6	64.2	84.6	103
[9]	-16.6	-24.9	5.7	64.8	68.9
[10]	-5.41	-0.41	7.96	54.3	86.4
[11]	-7.54	2.7	26.4	61.7	74.2
[12]	0.1	4.62	4.85	2.89	12.1
[13]	-1.68	0.38	17.6	60.4	68.1
[14]	2.14	-2.13	9.5	48.8	70.4

Conditions	drug sensitivity score
[15]	20.2
[16]	19
[17]	7.47
[18]	24.6
[19]	23.9
[20]	15.6
[21]	13.7
[22]	26.3
[23]	12.8
[24]	11.6
[25]	14.7
[26]	0
[27]	13.3
[28]	10.4

N#CC(c1ccnc(OCc2ccc(CN3CCOCC3)cc2)n1)c1nc2ccccc2s1 (stereo not given) [Bentamapimod] (max concentration tested 10000 nM)
percent inhibition of viability [%]
Conditions	1 nM	10 nM	100 nM	1000 nM	10000 nM
[1]	1.11	-7.13	0.02	9.12	35.7
[2]	-1.64	-1.25	-0.32	14.8	51.5
[3]	0.67	-4.76	0.93	6.64	58.2
[4]	-1.88	-7.11	-2.63	14.7	40.9
[5]	-0.61	-1.53	4.6	13.5	64
[6]	-0.51	-7.45	-6.19	10.8	47.6
[7]	-3.99	-3.72	3.63	20.3	47.6
[8]	-15.9	-16.8	-9.05	13.2	71.2
[9]	8.11	-3.58	-13.1	-25.4	8.78
[10]	-4.27	-0.56	3.3	13.5	56.8
[11]	-3.1	-0.66	-15.6	-7.74	4.64
[12]	3.62	7.45	-14.2	-14.4	-16.2
[13]	-16.9	-6.81	-3.2	-3.66	38.2
[14]	-6.62	-9.78	-6.35	-8.64	19.9

Conditions	drug sensitivity score
[15]	3.1
[16]	4.97
[17]	4.25
[18]	4.12
[19]	5.69
[20]	4.21
[21]	4.74
[22]	6.1
[23]	0
[24]	5.2
[25]	0
[26]	0
[27]	1.6
[28]	0.34
